# From patent US20230398130A1, “METHODS AND COMPOSITIONS FOR DIFFERENTIATING STEM CELLS” (Massachusetts Institute of Technology, priority 2020, published 2023)
# Experiments:
# ISC-enriched organoids [1] = experiment: Primary screen, 384-well 2.5-D organoid differentiation (ENR+CD, 6 days): basal lysozyme secretion (LYZ.NS); format: cell-based, murine; settings: for Dose.FC.LYZ.NS: FC vs plate median
# Text: (§1) High-throughput screening.
# ISC-enriched organoids [2] = experiment: Primary screen, 384-well 2.5-D organoid differentiation (ENR+CD, 6 days, Target Selective Inhibitor Library, vs whole-plate median): ATP (CellTiter-Glo 3D, CTG); settings: for Dose.FC.CTG: FC vs plate median
# ISC-enriched organoids [3] = experiment: Primary screen, 384-well 2.5-D organoid differentiation (ENR+CD, 6 days): carbachol-induced lysozyme secretion (LYZ.S); format: cell-based, murine; settings: for Dose.FC.LYZ.S: FC vs plate median
# Text: as §1
# [4] = Dose 0.08 uM, primary screen, vs plate median
# [5] = Dose 0.40 uM, primary screen, vs plate median
# [6] = Dose 2.00 uM, primary screen, vs plate median
# [7] = Dose 0.08 uM, primary screen, standard z score
# [8] = Dose 0.40 uM, primary screen, standard z score
# [9] = Dose 2.00 uM, primary screen, standard z score
# [10] = Dose 10.00 uM, primary screen, standard z score
# [11] = Dose 0.08 uM, standard z score of FC
# [12] = Dose 0.40 uM, standard z score of FC
# [13] = Dose 2.00 uM, standard z score of FC
# [14] = Dose 10.00 uM, standard z score of FC
structure (smiles),measurement,setting,value
"CO[C@H]1C[C@@H]2CC[C@@H](C)[C@@](O)(O2)C(=O)C(=O)N2CCCC[C@H]2C(=O)O[C@H]([C@H](C)C[C@@H]2CC[C@@H](OC(=O)C(C)(CO)CO)[C@H](OC)C2)CC(=O)[C@H](C)/C=C(\C)[C@@H](O)[C@@H](OC)C(=O)[C@H](C)C[C@H](C)/C=C/C=C/C=C/1C [Temsirolimus (CCI-779, NSC 683864)]",Z.LYZ.NS (standard z score),"ISC-enriched organoids [1]; Dose 0.08 uM, primary screen",0.790
same,Dose.FC.LYZ.NS (log 2 fold change),ISC-enriched organoids [1]; [4],0.091
same,Z.LYZ.NS (standard z score),"ISC-enriched organoids [1]; Dose 0.40 uM, primary screen",0.763
same,Dose.FC.LYZ.NS (log 2 fold change),ISC-enriched organoids [1]; [5],0.088
same,Z.LYZ.NS (standard z score),"ISC-enriched organoids [1]; Dose 2.00 uM, primary screen",1.494
same,Dose.FC.LYZ.NS (log 2 fold change),ISC-enriched organoids [1]; [6],0.172
same,Z.LYZ.NS (standard z score),ISC-enriched organoids [1]; dose 10.00 uM,1.035
same,"Dose.FC.LYZ.NS (log 2 fold change, basal lysozyme secretion)","ISC-enriched organoids [1]; dose 10.00 uM, vs plate median",0.119
same,Z.CTG (standard z score),"ISC-enriched organoids [2]; Dose 0.08 uM, primary screen",1.228
same,Dose.FC.CTG (log 2 fold change),ISC-enriched organoids [2]; [4],0.514
same,Z.CTG (standard z score),"ISC-enriched organoids [2]; Dose 0.40 uM, primary screen",1.393
same,Dose.FC.CTG (log 2 fold change),ISC-enriched organoids [2]; [5],0.583
same,Z.CTG (standard z score),"ISC-enriched organoids [2]; Dose 2.00 uM, primary screen",1.382
same,Dose.FC.CTG (log 2 fold change),ISC-enriched organoids [2]; [6],0.578
same,Z.CTG (standard z score),ISC-enriched organoids [2]; dose 10.00 uM,0.478
same,"Dose.FC.CTG (log 2 fold change, ATP)","ISC-enriched organoids [2]; dose 10.00 uM, vs plate median",0.200
same,Dose.FC.LYZ.S (log 2 fold change),ISC-enriched organoids [3]; [4],0.082
same,Dose.FC.LYZ.S (log 2 fold change),ISC-enriched organoids [3]; [5],0.152
same,Dose.FC.LYZ.S (log 2 fold change),ISC-enriched organoids [3]; [6],0.132
same,"Dose.FC.LYZ.S (log 2 fold change, carbachol-induced lysozyme secretion)","ISC-enriched organoids [3]; dose 10.00 uM, vs plate median",0.153
COc1ccc(COc2ccc(Cc3cnc(N)nc3N)cc2OC)cc1 [GW2580],Dose.FC.LYZ.NS,"ISC-enriched organoids [1]; Dose 0.08 uM, primary screen",0.006 log 2 fold change
same,Z.LYZ.NS,ISC-enriched organoids [1]; [7],0.056
same,Dose.FC.LYZ.NS,"ISC-enriched organoids [1]; Dose 0.40 uM, primary screen",0.014 log 2 fold change
same,Z.LYZ.NS,ISC-enriched organoids [1]; [8],0.118
same,Dose.FC.LYZ.NS,"ISC-enriched organoids [1]; Dose 2.00 uM, primary screen",−0.060 log 2 fold change
same,Z.LYZ.NS,ISC-enriched organoids [1]; [9],−0.525
same,Dose.FC.LYZ.NS,"ISC-enriched organoids [1]; Dose 10.00 uM, primary screen",−0.018 log 2 fold change
same,Z.LYZ.NS,ISC-enriched organoids [1]; [10],−0.158
same,Dose.FC.CTG,"ISC-enriched organoids [2]; Dose 0.08 uM, primary screen",−0.042 log 2 fold change
same,Z.CTG,ISC-enriched organoids [2]; [7],−0.101
same,Dose.FC.CTG,"ISC-enriched organoids [2]; Dose 0.40 uM, primary screen",−0.284 log 2 fold change
same,Z.CTG,ISC-enriched organoids [2]; [8],−0.678
same,Dose.FC.CTG,"ISC-enriched organoids [2]; Dose 2.00 uM, primary screen",0.029 log 2 fold change
same,Z.CTG,ISC-enriched organoids [2]; [9],0.068
same,Dose.FC.CTG,"ISC-enriched organoids [2]; Dose 10.00 uM, primary screen",−0.038 log 2 fold change
same,Z.CTG,ISC-enriched organoids [2]; [10],−0.091
same,Dose.FC.LYZ.S,"ISC-enriched organoids [3]; Dose 0.08 uM, primary screen",−0.013 log 2 fold change
same,Dose.FC.LYZ.S,"ISC-enriched organoids [3]; Dose 0.40 uM, primary screen",0.020 log 2 fold change
same,Dose.FC.LYZ.S,"ISC-enriched organoids [3]; Dose 2.00 uM, primary screen",−0.060 log 2 fold change
same,Dose.FC.LYZ.S,"ISC-enriched organoids [3]; Dose 10.00 uM, primary screen",−0.026 log 2 fold change
CC(C)Oc1ccc(-c2cnc3c(-c4ccnc5ccccc45)cnn3c2)cc1 [DMH1],Dose.FC.LYZ.NS,"ISC-enriched organoids [1]; Dose 0.08 uM, ENR+CD, 6 days",0.018 log 2 fold change
same,Z.LYZ.NS,ISC-enriched organoids [1]; [11],0.155
same,Dose.FC.LYZ.NS,"ISC-enriched organoids [1]; Dose 0.40 uM, ENR+CD, 6 days",0.026 log 2 fold change
same,Z.LYZ.NS,ISC-enriched organoids [1]; [12],0.231
same,Dose.FC.LYZ.NS,"ISC-enriched organoids [1]; Dose 2.00 uM, ENR+CD, 6 days",0.014 log 2 fold change
same,Z.LYZ.NS,ISC-enriched organoids [1]; [13],0.124
same,Dose.FC.LYZ.NS,"ISC-enriched organoids [1]; Dose 10.00 uM, ENR+CD, 6 days",−0.075 log 2 fold change
same,Z.LYZ.NS,ISC-enriched organoids [1]; [14],−0.657
same,Dose.FC.CTG,"ISC-enriched organoids [2]; Dose 0.08 uM, ENR+CD, 6 days",−0.031 log 2 fold change
same,Z.CTG,ISC-enriched organoids [2]; [11],−0.075
same,Dose.FC.CTG,"ISC-enriched organoids [2]; Dose 0.40 uM, ENR+CD, 6 days",−0.079 log 2 fold change
same,Z.CTG,ISC-enriched organoids [2]; [12],−0.188
same,Dose.FC.CTG,"ISC-enriched organoids [2]; Dose 2.00 uM, ENR+CD, 6 days",−0.002 log 2 fold change
same,Z.CTG,ISC-enriched organoids [2]; [13],−0.004
same,Dose.FC.CTG,"ISC-enriched organoids [2]; Dose 10.00 uM, ENR+CD, 6 days",−0.001 log 2 fold change
same,Z.CTG,ISC-enriched organoids [2]; [14],−0.003
same,Dose.FC.LYZ.S,"ISC-enriched organoids [3]; Dose 0.08 uM, ENR+CD, 6 days",0.078 log 2 fold change
same,Dose.FC.LYZ.S,"ISC-enriched organoids [3]; Dose 0.40 uM, ENR+CD, 6 days",0.054 log 2 fold change
same,Dose.FC.LYZ.S,"ISC-enriched organoids [3]; Dose 2.00 uM, ENR+CD, 6 days",0.035 log 2 fold change
same,Dose.FC.LYZ.S,"ISC-enriched organoids [3]; Dose 10.00 uM, ENR+CD, 6 days",−0.092 log 2 fold change
